# Assay results from US7868005B2, “Pyrazinyl substituted piperazine-piperidines with CXCR3 antagonist activity” (Schering Corporation, priority 2005, dated 2011).
# Target: T1, human CXCR3 (N-delta 4) (Homo sapiens, UniProt P49682)
# T1 construct: CD8 leader (N); Flag; expressed in transfected cells; membranes prepared
# T1 sequence (P49682 5-368 limits assumed): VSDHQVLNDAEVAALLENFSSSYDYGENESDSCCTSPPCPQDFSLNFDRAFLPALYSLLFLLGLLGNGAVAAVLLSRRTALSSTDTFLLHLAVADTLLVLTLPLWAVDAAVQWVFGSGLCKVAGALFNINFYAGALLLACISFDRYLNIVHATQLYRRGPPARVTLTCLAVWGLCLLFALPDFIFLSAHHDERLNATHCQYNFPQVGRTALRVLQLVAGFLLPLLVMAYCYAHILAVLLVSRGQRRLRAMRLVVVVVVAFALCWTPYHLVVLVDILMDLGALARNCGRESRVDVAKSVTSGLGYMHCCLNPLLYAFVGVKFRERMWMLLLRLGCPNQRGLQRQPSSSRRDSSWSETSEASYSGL
# Assay: Human CXCR3 (N-delta 4) Scintillation Proximity Assay (SPA), [125I] IP-10 binding to Ba/F3-hCXCR3 membranes
# Conditions: IC50 rating, Table 1; read-out: IC50
# Text: The inventive compounds can readily be evaluated to determine activity at the CXCR3 receptors by known methods, such as, for example, development of a human CXCR3 (N-delta 4) Binding Assay.
# Cloning and Expression of Human CXCR3 (N-delta 4):
# The DNA encoding human CXCR3 was cloned by PCR using human genomic DNA (Promega, Madison, Wis.) as a template. The PCR primers were designed based on the published sequence of human orphan receptor GPR9 (1) with incorporated restriction sites, a Kozak consensus sequence, CD8 leader and Flag tag. The PCR product was subcloned into the mammalian expression vector pME18Sneo, a derivative of the SR-alpha expression vector (designated as pME18Sneo-hCXCR3 (N-delta 4).
# IL-3-dependent mouse pro-B cells Ba/F3 were transfected by electroporation in 0.4 ml Dulbecco's PBS containing 4×10^6 cells with 20 μg of pME18Sneo-hCXCR3 (N-delta 4) plasmid DNA. Cells were pulsed at 400 Volts, 100 OHMs, 960 μFd. The transfected cells were under selection with 1 mg/ml G418 (Life Technologies, Gaithersburg, Md.). G418-resistant Ba/F3 clones were screened for CXCR3 expression by specific binding of [^125I] IP-10 (NEN Life Science Products, Boston, Mass.).
# Preparation of Ba/F3-hCXCR3 (N-delta 4) Membranes:
# Ba/F3 cells expressing human CXCR3 (N-delta 4) were pelleted and resuspended in the lysis buffer containing 10 mM HEPES, pH 7.5 and Complete® protease inhibitors (1 tablet per 100 ml) (Boehringer Mannheim, Indianapolis, Ind.) at a cell density of 20×10^6 cells per ml. After 5 minute incubation on ice, cells were transferred to 4639 cell disruption bomb (Parr Instrument, Moline, Ill.) and applied with 1,500 psi of nitrogen for 30 minutes on ice. Large cellular debris was removed by centrifugation at 1,000×g. Cell membrane in the supernatant was sedimented at 100,000×g. The membrane was resuspended in the lysis buffer supplemented with 10% sucrose and stored at −80° C. Total protein concentration of the membrane was determined by BCA method from Pierce (Rockford, Ill.).
# Human CXCR3 (N-delta 4) Scintillation Proximity Assay (SPA):
# For each assay point, 2 μg of membrane was preincubated for 1 hr with 300 μg wheat germ agglutinin (WGA) coated SPA beads (Amersham, Arlington Heights, Ill.) in the binding buffer (50 mM HEPES, 1 mM CaCl2, 5 mM MgCl2, 125 mM NaCl, 0.002% NaN3, 1.0% BSA) at room temperature. The beads were spun down, washed once, resuspended in the binding buffer and transferred to a 96-well Isoplate (Wallac, Gaithersburg, Md.). 25 pM of [^125I] IP-10 with tested compounds in a series of titration were added to start the reaction. After 3 hr reaction at room temperature, the amount of [^125I] IP-10 bound to the SPA beads was determined with a Wallac 1450 Microbeta counter.
# The Ki ratings for the various compounds of the present invention are given in the afore-mentioned Table 1. From these ratings and value ranges, it would be apparent to the skilled artisan that the compounds of the invention have excellent utility as CXCR3 receptor antagonists.
row,Compound,IC50
1,CC[C@H]1CN(c2nc(N)c(C(=O)NC3CC3)nc2Cl)CCN1C1CCN(Cc2ccc(C#N)cc2OCCN2CCCC2=O)CC1 [compound 93],< 25 nM
2,C[C@@H]1CN(C2CCN(Cc3ccc(Cl)cc3F)CC2)[C@@H](C)CN1c1cnc(C(=O)NC2CC2)cn1 [compound 94],25 to 100 nM
3,CC[C@H]1CN(c2nc(N)c(C(=O)NC3CC3)nc2Cl)CCN1C1CCN(Cc2ccc(Cl)cc2)CC1O (stereo partly shown) [compound 95],25 to 100 nM
4,CC[C@H]1CN(c2nc(N)c(C(=O)NC3CC3)nc2Cl)CCN1C1CCN(C(CCNC(=O)OC(C)(C)C)c2ccc(Cl)cc2)CC1 (stereo partly shown) [compound 96],> 100 nM
5,CC[C@H]1CN(c2nc(N)c(C(=O)NC3CC3)nc2Cl)CCN1C1CCN(Cc2ccc(OCC(N)=O)cc2)CC1 [compound 97],> 100 nM
6,CC[C@H]1CN(c2nc(N)c(C(=O)NC3CC3)nc2Cl)CCN1C1CCN(Cc2ccc(Cl)cc2)CC1O (stereo partly shown) [compound 98],> 100 nM
7,CC[C@H]1CN(c2nc(N)c(C(=O)NCCOc3ccccc3)nc2Cl)CCN1C1CCN(Cc2ccc(C#N)cc2)CC1 [compound 99],< 25 nM
8,CC[C@H]1CN(c2nc(N)c(C(=O)NCCS(C)(=O)=O)nc2Cl)CCN1C1CCN(Cc2ccc(Cl)cc2)CC1 [compound 100],< 25 nM
9,CC[C@H]1CN(c2nc(N)c(C(=O)NCCS(C)(=O)=O)nc2Cl)CCN1C1CCN(Cc2ccc(Cl)cc2)CC1 [compound 101],25 to 100 nM
10,CCNC(=O)c1nc(Cl)c(N2CCN(C3CCN(Cc4ccc(Cl)cc4)CC3)[C@@H](CC)C2)nc1N [compound 102],< 25 nM
11,CCNC(=O)c1nc(Cl)c(N2CCN(C3CCN(Cc4ccc(Cl)cc4F)CC3)[C@@H](CC)C2)nc1N [compound 103],< 25 nM
12,CCNC(=O)c1nc(Cl)c(N2CCN(C3CCN(C(C)(C)c4ccc(Cl)cc4)CC3)[C@@H](CC)C2)nc1N [compound 104],25 to 100 nM
13,CC[C@H]1CN(c2nc(N)c(C(=O)NCC(=O)O)nc2Cl)CCN1C1CCN(Cc2ccc(Cl)cc2)CC1 [compound 105],> 100 nM
14,CCNC(=O)c1nc(Cl)c(N2CCN(C3CCN(C(C)(C)c4ccc(Cl)cc4)CC3)[C@@H](C)C2)nc1N [compound 106],> 100 nM
15,CC[C@H]1CN(c2nc(N)c(C(=O)NCCO)nc2Cl)CCN1C1CCN(Cc2ccc(Cl)cc2CO)CC1 [compound 107],< 25 nM
16,CC[C@H]1CN(c2nc(N)c(C(=O)NCCO)nc2Cl)CCN1C1CCN(Cc2ccc(Cl)cc2/C(N)=N\O)CC1 [compound 108],< 25 nM
17,CC[C@H]1CN(c2nc(N)c(C(=O)NCCO)nc2Cl)CCN1C1CCN([C@@H](CO)c2ccc(Cl)cc2)CC1 [compound 109],< 25 nM
18,CC[C@H]1CN(c2nc(N)c(C(=O)NCCO)nc2Cl)CCN1C1CCN(Cc2ccc(Cl)cc2)CC1 [compound 110],< 25 nM
19,CC[C@H]1CN(c2nc(N)c(C(=O)NCCO)nc2Cl)CCN1C1CCN(Cc2ccc(Cl)cc2C(=N)N)CC1 [compound 111],< 25 nM
20,CC[C@H]1CN(c2nc(N)c(C(=O)NCCO)nc2Cl)CCN1C1CCN(Cc2ccc(OC(F)(F)F)cc2)CC1 [compound 112],< 25 nM
21,CC[C@H]1CN(c2nc(N)c(C(=O)NCCO)nc2Cl)CCN1C1CCN(Cc2ccc(Cl)cc2F)CC1 [compound 113],< 25 nM
22,CCOC(=O)/N=C(\N)c1cc(Cl)ccc1CN1CCC(N2CCN(c3nc(N)c(C(=O)NCCO)nc3Cl)C[C@@H]2CC)CC1 [compound 114],< 25 nM
23,CC[C@H]1CN(c2nc(N)c(C(=O)NCCO)nc2Cl)CCN1C1CCN(Cc2ccc(Cl)cc2OCCOC)CC1 [compound 115],< 25 nM
24,CC[C@H]1CN(c2nc(N)c(C(=O)NCCO)nc2Cl)CCN1C1CCN([C@@H](CO)c2ccc(C#N)cc2)CC1 [compound 116],< 25 nM

row,Compound,IC50
1,CC[C@H]1CN(c2nc(N)c(C(=O)NCCO)nc2Cl)CCN1C1CCN(Cc2ccc(C(=O)OC)cc2)CC1 [compound 117],< 25 nM
2,CC[C@H]1CN(c2nc(N)c(C(=O)NCCO)nc2Cl)CCN1C1CCN(Cc2ccc(OC(F)(F)F)cc2OCCOC)CC1 [compound 118],< 25 nM
3,CC[C@H]1CN(c2nc(N)c(C(=O)NCCO)nc2Cl)CCN1C1CCN(Cc2ccc(OC(F)(F)F)cc2OCCCCO)CC1 [compound 119],< 25 nM
4,CC[C@H]1CN(c2nc(N)c(C(=O)NCCO)nc2Cl)CCN1C1CCN(Cc2ccc(Cl)cc2OCCNC(=O)OC(C)(C)C)CC1 [compound 120],< 25 nM
5,CC[C@H]1CN(c2nc(N)c(C(=O)NCCO)nc2Cl)CCN1C1CCN(Cc2ccc(C#N)cc2)CC1 [compound 121],< 25 nM
6,CC[C@H]1CN(c2nc(N)c(C(=O)NCCO)nc2Cl)CCN1C1CCN([C@@H](CO)c2ccc(F)c(F)c2)CC1 [compound 122],< 25 nM
7,CC[C@H]1CN(c2nc(N)c(C(=O)NCCO)nc2Cl)CCN1C1CCN(Cc2ccc(F)c(F)c2)CC1 [compound 123],< 25 nM
8,CC[C@H]1CN(c2nc(N)c(C(=O)NCCO)nc2Cl)CCN1C1CCN(Cc2ccc(Cl)cc2OCCO)CC1 [compound 124],< 25 nM
9,CC[C@H]1CN(c2nc(N)c(C(=O)NCCO)nc2Cl)CCN1C1CCN(Cc2ccc(OC(F)(F)F)cc2OCCCO)CC1 [compound 125],< 25 nM
10,CC[C@H]1CN(c2nc(N)c(C(=O)NCCO)nc2Cl)CCN1C1CCN(Cc2ccc(OC)cc2)CC1 [compound 126],< 25 nM
11,CC[C@H]1CN(c2nc(N)c(C(=O)NCCO)nc2Cl)CCN1C1CCN(Cc2ccc(Cl)cc2C(N)=O)CC1 [compound 127],< 25 nM
12,CC[C@H]1CN(c2nc(N)c(C(=O)NCCO)nc2Cl)CCN1C1CCN([C@H](CO)c2ccc(Cl)cc2)CC1 [compound 128],< 25 nM
13,CC[C@H]1CN(c2nc(N)c(C(=O)NCCO)nc2Cl)CCN1C1CCN(Cc2ccc(Cl)cc2OCCNC(=O)C(C)(C)C)CC1 [compound 129],< 25 nM
14,CC[C@H]1CN(c2nc(N)c(C(=O)NCCO)nc2Cl)CCN1C1CCN(Cc2ccc(Cl)cc2OCCNS(C)(=O)=O)CC1 [compound 130],< 25 nM
15,CC[C@H]1CN(c2nc(N)c(C(=O)NCCO)nc2Cl)CCN1C1CCN(Cc2ccc(Cl)cc2OCCNC(=O)NC2CCCCC2)CC1 [compound 131],< 25 nM
16,CC[C@H]1CN(c2nc(N)c(C(=O)NCCO)nc2Cl)CCN1C1CCN(Cc2ccc(Cl)cc2OCCNS(=O)(=O)C(F)(F)F)CC1 [compound 132],< 25 nM
17,CC[C@H]1CN(c2nc(N)c(C(=O)NCCO)nc2Cl)CCN1C1CCN(Cc2ccc(F)cc2)CC1 [compound 133],< 25 nM
18,CC[C@H]1CN(c2nc(N)c(C(=O)NCCO)nc2Cl)CCN1C1CCN(Cc2ccc(Cl)cc2OCCNS(N)(=O)=O)CC1 [compound 134],< 25 nM
19,CC[C@H]1CN(c2nc(N)c(C(=O)NCCO)nc2Cl)CCN1C1CCN(Cc2ccc(F)c(F)c2N2CC[C@@H](O)C2)CC1 [compound 135],< 25 nM
20,CC[C@H]1CN(c2nc(N)c(C(=O)NCCO)nc2Cl)CCN1C1CCN(Cc2ccc(Cl)cc2C#N)CC1 [compound 136],< 25 nM
21,CC[C@H]1CN(c2nc(N)c(C(=O)NCCO)nc2Cl)CCN1C1CCN(Cc2ccc(Cl)cc2OCCNC(=O)NC(C)(C)C)CC1 [compound 137],< 25 nM
22,CC[C@H]1CN(c2nc(N)c(C(=O)NCCO)nc2Cl)CCN1C1CCN(Cc2ccc(Cl)cc2O)CC1 [compound 138],< 25 nM
23,CC[C@H]1CN(c2nc(N)c(C(=O)NCCO)nc2Cl)CCN1C1CCN(Cc2cc(F)c(Cl)cc2OCCCO)CC1 [compound 139],< 25 nM
24,CC[C@H]1CN(c2nc(N)c(C(=O)NCCO)nc2Cl)CCN1C1CCN(Cc2ccc(-c3ccc(F)cc3)cc2)CC1 [compound 140],< 25 nM

# Same assay, conditions: read-out: IC50
row,Compound,IC50
1,CC[C@H]1CN(c2nc(N)c(C(=O)NCCO)nc2Cl)CCN1C1CCN(Cc2ccc(Cl)cc2CO)CC1 [compound 107],0.2 nM
